Columns and labels:
[1] = system: large crabgrass; assay: Test A pre-/postemergence herbicide test; assay type: in vivo, Digitaria sanguinalis
Method in brief: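 Both application timings were run together: directed soil spray over freshly planted seeds in sandy loam, and runoff spray onto 2–10 cm seedlings. Evaluation after ~10 days in greenhouse used a 0–100 visual scale versus untreated controls.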

[2] = system: giant foxtail; assay: Test C pre-/postemergence herbicide test; assay type: in vivo, Setaria faberi
Method in brief: (§1)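 Emerged plants at the 1- to 4-leaf stage (2–18 cm), or freshly planted seeds, received test chemicals in a non-phytotoxic solvent mixture with surfactant. Response was visually scored against controls after 12 to 14 days in the greenhouse, on a 0 (no effect) to 100 (complete control) scale.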

[3] = system: common (oilseed) sunflower; assay: Test C pre-/postemergence herbicide test; assay type: in vivo, Helianthus annuus; settings: for Sunflower plant response rating: Preemergence, scale 0 to 100, 0 no effect, 100 complete control
Method in brief: as §1

[4] = system: johnsongrass; assay: Test C pre-/postemergence herbicide test; assay type: in vivo, Sorghum halepense
Method in brief: as §1

[5] = system: common ragweed; assay: Test C pre-/postemergence herbicide test; assay type: in vivo, Ambrosia elatior; parameters: key to Plant response rating, Ragweed: 0 = no effect, 100 = complete control
Method in brief: as §1

[6] = system: cocklebur; assay: Test C pre-/postemergence herbicide test; assay type: in vivo, Xanthium strumarium; settings: for Cocklebur plant response rating: 500 g ai/ha
Method in brief: as §1

[7] = system: ducksalad; assay: Test B flooded paddy test; assay type: in vivo, Heteranthera limosa; settings: 1000 g ai/ha, visual rating, scale 0 to 100 (0 no effect, 100 complete control), 13 to 15 days
Method in brief: (§2)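 Formulated test chemicals went onto postemergence plants measuring 2 to 18 cm, at one to four leaves. For the paddy assay, species had reached two leaves. Scoring took place 13–15 days later by eye, relative to untreated plants, using 0 for no effect up to 100 for full control.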

[8] = system: rice; assay: Test B pre-/postemergence herbicide test; assay type: in vivo, Oryza sativa; settings: preemergence; for Plant response rating, Rice: 500 g ai/ha; for Rice plant response rating (0 to 100 scale): 125 g ai/ha
Method in brief: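 Species tested were Echinochloa crus-galli, Ipomoea coccinea, Xanthium strumarium and Oryza sativa, treated both before emergence and at the 1- to 4-leaf stage; rice and barnyardgrass were also tested under flooding at 2 leaves. Greenhouse incubation lasted 13–15 days before visual 0–100 scoring.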

[9] = system: blackgrass; assay: Test B postemergence herbicide test; assay type: in vivo, Alopecurus myosuroides; settings: postemergence, visual rating, scale 0 (no effect) to 100 (complete control)
Method in brief: as §2

[10] = Postemergence, 500 g ai/ha, 0 to 100 scale, 0 no effect, 100 complete control
[11] = Postemergence, 2000 g ai/ha, 0 to 100 scale, 0 no effect, 100 complete control
[12] = Preemergence, 2000 g ai/ha, visual rating, 0 to 100 scale (0 no effect, 100 complete control)
[13] = 125 g ai/ha, scale 0 (no effect) to 100 (complete control), visual, 12 to 14 days, preemergence
[14] = 250 g ai/ha, scale 0 to 100 (0 no effect, 100 complete control), visual, 12 to 14 days, preemergence
[15] = Postemergence, 500 g ai/ha, scale 0 to 100
[16] = Postemergence, 250 g ai/ha, scale 0 to 100, 0 no effect, 100 complete control
[17] = Preemergence, 500 g ai/ha, scale 0 to 100, 0 no effect, 100 complete control
[18] = postemergence, 125 g ai/ha, scale 0 to 100
[19] = Preemergence, scale 0 to 100, 0 no effect, 100 complete control
[20] = visual rating 0-100, 0 no effect, 100 complete control
[21] = preemergence, 500 g ai/ha, visual injury, 0 to 100 scale (0 no effect, 100 complete control)
[22] = 62 g ai/ha, preemergence, scale 0 to 100
[23] = 250 g ai/ha, scale 0-100, preemergence
[24] = 0 = no effect, 100 = complete control
[25] = 500 g ai/ha, scale 0 to 100 (0 no effect, 100 complete control), visual, 12 to 14 days, preemergence

Structure (SMILES)	Crabgrass, Large plant response rating [1, 10]	Plant response rating, Crabgrass, Large [1, 11]	Crabgrass, Large plant response rating [1, 12]	Plant response rating, Foxtail, Giant [2, 13]	Foxtail, Giant plant response rating [2, 17]	Plant response rating, Sunflower [3, 13]	Sunflower plant response rating ([3]; 500 g ai/ha)	Johnsongrass plant response rating [4, 17]	Plant response rating, Ragweed [5, 13]	Ragweed plant response rating [5, 17]	Cocklebur plant response rating [6, 19]	Ducksalad plant response rating [7]	Plant response rating, Rice [8, 20]	Blackgrass plant response rating ([9]; 125 g ai/ha)	Blackgrass plant response rating ([9]; 500 g ai/ha)	Crabgrass, Large plant response rating [1, 21]	Plant response rating, Foxtail, Giant [2, 22]	Plant response rating, Foxtail, Giant [2, 23]	Plant response rating, Sunflower [3, 22]	Plant response rating, Sunflower [3, 23]	further results
CCn1nc(C(C)(C)C)cc1C(=O)Nc1cccc(SC(F)(F)F)c1 [Compound 130]	20	20	60	45	95	0	0	80	10	80	100	10	0	20	60						Crabgrass, Large plant response rating ([1]; Preemergence, 500 g ai/ha, visual rating, 0 to 100 scale (0 no effect, 100 complete control)): 45; Plant response rating (0 = no effect, 100 = complete control), Foxtail, Giant ([2]; 62 g ai/ha, preemergence): 40; Plant response rating, Foxtail, Giant [2, 14]: 65; Foxtail, Giant plant response rating [2, 15]: 30; Plant response rating, Foxtail, Giant [2, 16]: 15; Plant response rating, Foxtail, Giant [2, 18]: 10; Plant response rating (0 = no effect, 100 = complete control), Sunflower ([3]; 62 g ai/ha, preemergence): 0; Johnsongrass plant response rating [4, 15]: 40; Plant response rating, Johnsongrass [4, 16]: 30; Plant response rating, Johnsongrass [4, 18]: 10; Plant response rating (0 = no effect, 100 = complete control), Ragweed ([5]; 62 g ai/ha, preemergence): 0; Ragweed plant response rating [5, 15]: 85; Plant response rating, Ragweed [5, 16]: 85; Plant response rating, Ragweed [5, 18]: 40; Plant response rating (0 = no effect, 100 = complete control), Cocklebur ([6]; 62 g ai/ha, preemergence): 0; Plant response rating, Cocklebur [6, 14]: 70; Cocklebur plant response rating ([6]; Postemergence, scale 0 to 100): 100; Plant response rating, Cocklebur [6, 16]: 90; Plant response rating, Cocklebur [6, 18]: 30
CC(=NO)c1cccc(NC(=O)c2sc(C(C)(C)C)nc2C)c1 [Compound 195]	10	25	95	0	20	0	10	0	40	90	0	40	20	0	10	75	0	0	0	0	Plant response rating, Johnsongrass [4, 22]: 0; Plant response rating, Johnsongrass [4, 13]: 0; Plant response rating, Johnsongrass [4, 23]: 0; Plant response rating, Ragweed [5, 22]: 20; Plant response rating, Ragweed [5, 23]: 80; Plant response rating, Cocklebur [6, 22]: 0; Plant response rating, Cocklebur [6, 13]: 0; Plant response rating, Cocklebur [6, 23]: 0; Rice plant response rating (0 to 100 scale) [8, 24]: 10
CCNC(=O)c1cccc(NC(=O)c2sc(C(C)(C)C)nc2C)c1 [Compound 198]	20	65	90	10	100	0	20	95	80	100	10	70	80	0	10	80	0	60	0	10	Plant response rating, Johnsongrass [4, 22]: 0; Plant response rating, Johnsongrass [4, 13]: 30; Plant response rating, Johnsongrass [4, 23]: 60; Plant response rating, Ragweed [5, 22]: 50; Plant response rating, Ragweed [5, 23]: 95; Plant response rating, Cocklebur [6, 22]: 0; Plant response rating, Cocklebur [6, 13]: 0; Plant response rating, Cocklebur [6, 23]: 0; Rice plant response rating (0 to 100 scale) [8, 24]: 30
CCNC(=O)c1cccc(NC(=O)c2sc(C(C)(C)C)nc2CC)n1 [Compound 213]	20	30	95	50		0			0		100	70		20	40	55	30	95	0	0	Plant response rating, Foxtail, Giant [2, 25]: 100; Plant response rating, Sunflower [3, 25]: 0; Plant response rating, Johnsongrass [4, 22]: 0; Plant response rating, Johnsongrass [4, 13]: 55; Plant response rating, Johnsongrass [4, 23]: 60; Plant response rating, Johnsongrass [4, 25]: 80; Plant response rating, Ragweed [5, 22]: 0; Plant response rating, Ragweed [5, 23]: 0; Plant response rating, Ragweed [5, 25]: 0; Plant response rating, Cocklebur [6, 23]: 100; Rice plant response rating (0 to 100 scale) [8, 24]: 0; Plant response rating, Rice ([8]; visual rating, 0 = no effect, 100 = complete control): 40
